No end group written: not given here. Me2 = dimethyl-lysine (Lys side chain dimethylated)
Columns and labels:
chromatin of HepG2 cells [1] = assay: ChIP-Seq of GFP-HRP3 variants in HepG2 cells; type: cell-based, human; settings: ChIP-Seq with GFP antibody, HepG2, two biological replicates combined
Experimental: (§1) HepG2 (ATCC HB-8065) and HEK293T human embryonic kidney cells (ATCC #CRL-11268) were cultured in Dulbecco’s modified Eagle’s medium supplemented with 10% FBS. Stable overexpression of wild-type or mutant HRP3 in HepG2 cells was performed using FUGW lentiviral constructs expressing wild-type or mutant HRP3. Lentiviral vector infections ([47]) and plasmid transfections ([48]) were performed as previously described. Overexpression efficiency was determined by western blot.
For chromatin immunoprecipitation, HepG2 cells were cross-linked with 1% formaldehyde at 37°C for 10 min and quenched with 0.125 M glycine for 5 min at room temperature. ChIP was performed using a ChIP assay kit (Millipore) according to the manufacturer’s protocol. Antibodies used for ChIP were GFP (gta-20, Chromo-Tek) and H3K36me3 (ab9050, abcam).
ChIP-Seq data were aligned to human genome hg19 using Bowtie 1.0 allowing one mismatch. Two biological replicates were performed and combined for the analysis. Analysis was performed using the Galaxy ([49]) and Cistrome ([50]) Platform and via custom R scripts for Bioconductor ([51]). Peak calling was performed using MACS2. Promoter definitions were downloaded from the UCSC browser ([52]). DNase I hypersensitivity and MNase-Seq data from ENCODE (GSM816662, GSM920557) ([53]) were used.

chromatin of HepG2 cells [2] = assay: Subcellular fractionation, chromatin binding of GFP-HRP3 variants in HepG2 cells; type: cell-based, human; settings: cellular fractionation, western blot anti-GFP
Experimental: as §1
Cellular fractionations were performed using a Subcellular Fractionation Kit (Thermo Scientific, cat. 78840) according to the manufacturer’s protocol. A total of 1 × 10^6 cells were used for each cell line’s fractionation. Soluble nuclear contents and chromatin-bound nuclear contents were analysed by western blotting using anti-GFP (gta-20, Chromo-Tek) and anti-histone H3 (4499S, CST) antibodies.

HRP3 PWWP = assay: DNA geometry analysis of the PWWP/DNA complex structures; parameters: species or system human
Experimental: DNA geometry was analysed with the 3DNA ([42]) and Curves+ ([43]) programs. Electrostatic potentials were calculated using the DelPhi program ([44]). The minor groove width was measured according to the method described ([45]). In detail, the distances between the ith (i indicates the number of the base from one chain) phosphate atom from one chain and the (i + 4)th atom from the paired chain were used to describe the minor groove width at the ith base. Electrostatic potentials were calculated at the midpoints between the above phosphate atom pairs used to calculate the minor groove widths.

H3K36me3 peptide = assay: NMR titration, loss of H3K36me3 peptide binding of HRP3 PWWP mutants; settings: versus wild-type
Experimental: (§2) All 2D ^1H-^15N HSQC NMR spectra were collected on the Bruker Avance III HD 600 MHz and 800 MHz spectrometers at 298 K. The NMR data were processed by NMRPipe ([39]) and analysed by KUJIRA ([40]) running with NMRview ([41]) softwares. Chemical shift perturbation experiments were carried out using ^15N-labelled HRP3 PWWP (residues 1–110) dissolved in buffer containing 20 mM PBS at pH 6.9, 20 mM NaCl and 2 mM DTT. A series of 2D ^1H-^15N HSQC spectra were recorded at HRP3 PWWP:H3K36me3/2/1/0 (residues 29–41) molar ratios of 1:0, 1:0.5, 1:1.5, 1:4, 1:6, 1:10, 1:15 and 1:20, respectively. The combined chemical shift perturbation was calculated using the following equation: Δδ = [(Δδ^1H)^2 + (Δδ^15N/5)^2]^1/2. Dissociation constants were calculated by fitting the data to a single-site ligand-binding model (SigmaPlot).

HRP3 PWWP WT = target: T1, HRP3 PWWP WT (Homo sapiens, UniProt Q9Y3E1); assay: NMR titration of H3K36 peptides with wild-type HRP3 PWWP; type: binding; settings: 15N-labelled HRP3 PWWP (1–110) WT, H3 residues 29–41, 20 mM PBS pH 6.9, 20 mM NaCl, 2 mM DTT, 298 K
T1 construct: using ^15N-labelled HRP3 PWWP (residues 1–110) dissolved in buffer; 6xHis-SUMO (cleaved yes); made in house; host or cells: Escherichia coli Rosetta (DE3)
Experimental: as §2

HRP3 PWWP (1-110) WT = HRP3 PWWP (1-110) WT (UniProt Q9Y3E1 1-110); assay: MST; MST: 50 mM KCl, 10 mM Na cacodylate pH 6.5, 2 mM DTT, 200 nM FAM-dsDNA; ITC: 10 mM PBS pH 7.0, 50 mM NaCl, 2 mM b-ME, 20 C; nucleosome EMSA: 20 mM Tris pH 7.5; settings: protein: recombinant, tags: none (His-SUMO removed), label: 5'-FAM (MST), blunt
[3] = target: T2, HRP3 PWWP domain (residues 1–110) (human, UniProt Q9Y3E1 1-110); assay: NMR titration; 2D 1H-15N HSQC chemical shift perturbation of 15N-labelled HRP3 PWWP (1–110); H3 peptide (29–41) added to molar ratios 1:0 to 1:20; 298 K; 20 mM PBS pH 6.9, 20 mM NaCl, 2 mM DTT; single-site ligand-binding fit; settings: both partners purified
T2 construct: HDGF-related protein 3 (HRP3, HDGFL3), human, residues 1-110 holding the PWWP domain; His-SUMO tag removed by ULP1 protease; also called HRP3 PWWP (1–110); HRP3(1-110); source: E. coli Rosetta (DE3), purified (nickel column, gel filtration), 15N-labelled

[4] = target: HRP3 PWWP K18A/N76A/R78A (KNR-A) (UniProt Q9Y3E1 1-110, K18A;N76A;R78A); assay: MST; MST: 50 mM KCl, 10 mM Na cacodylate pH 6.5, 2 mM DTT, 200 nM FAM-dsDNA; ITC: 10 mM PBS pH 7.0, 50 mM NaCl, 2 mM b-ME, 20 C; nucleosome EMSA: 20 mM Tris pH 7.5; settings: protein: recombinant; tags: none (His-SUMO removed); label: 5'-FAM (MST); blunt; self-complementary
HRP3 PWWP K18A/N76A/R78A (KNR-A), sequence (Q9Y3E1 1-110 K18A/N76A/R78A): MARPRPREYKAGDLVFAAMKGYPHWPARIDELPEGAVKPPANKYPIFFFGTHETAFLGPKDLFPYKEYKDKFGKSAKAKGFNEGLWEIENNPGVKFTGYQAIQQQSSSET

T1 sequence (Q9Y3E1 1-110): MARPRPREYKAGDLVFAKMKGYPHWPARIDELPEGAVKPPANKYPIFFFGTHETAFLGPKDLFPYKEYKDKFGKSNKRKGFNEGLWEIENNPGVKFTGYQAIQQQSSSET
HRP3 PWWP (1-110) WT, sequence (Q9Y3E1 1-110): as above
T2 sequence (Q9Y3E1 1-110): as above

KYNR-A: HRP3 K18A/Y22A/N76A/R78A mutant, GFP fusion
chromatin binding / recruitment by ChIP-Seq (chromatin of HepG2 cells [1]): strong reduction in chromatin binding | chromatin binding (chromatin of HepG2 cells [2]): dramatically reduced the chromatin binding

K18A: DNA binding mutant of human HRP3, GFP fusion
chromatin binding (chromatin of HepG2 cells [2]): dramatically reduced the chromatin binding

5′-GCGCGCGCGC-3′ [10-mer-GC]
average helical twist (HRP3 PWWP; 3DNA): 35.3 ° | average propeller twist (HRP3 PWWP; 3DNA): −7.3 ° | bending angle towards the minor groove per 6 bps (HRP3 PWWP; Curve+ software): 3.4 ° | narrowing of minor groove upon PWWP binding (HRP3 PWWP; crystal structure of complex): ~2.7 Å | width of the minor groove, PWWP-binding region (HRP3 PWWP; crystal structure of complex): 10.5 Å | width of the minor groove, PWWP-free region (HRP3 PWWP; crystal structure of complex): 13.2 Å

E53A: HRP3 PWWP mutant E53A
fold loss of binding affinity for the H3K36me3 peptide (H3K36me3 peptide): 5.7 fold

F48A: HRP3 PWWP aromatic cage mutant
fold loss of binding affinity for the H3K36me3 peptide (H3K36me3 peptide): 6.7 fold

Y22A: HRP3 PWWP aromatic cage mutant
fold loss of binding affinity for the H3K36me3 peptide (H3K36me3 peptide): 15 fold | chromatin binding / recruitment by ChIP-Seq (chromatin of HepG2 cells [1]): weaker consequences | chromatin binding (chromatin of HepG2 cells [2]): but not the H3K36me3 binding amino acids (Y22A) alone, dramatically reduced the chromatin binding

KNR-A: HRP3 K18A/N76A/R78A mutant, GFP fusion
chromatin binding / recruitment by ChIP-Seq (chromatin of HepG2 cells [1]): strong reduction in chromatin binding | chromatin binding (chromatin of HepG2 cells [2]): dramatically reduced the chromatin binding

CNCCCC[C@H](NC(=O)[C@@H](NC(=O)CNC(=O)CNC(=O)[C@@H](NC(=O)[C@H](C)NC(=O)[C@@H]1CCCN1C(=O)[C@H](C)N)[C@@H](C)O)C(C)C)C(=O)N[C@@H](CCCCN)C(=O)N1CCC[C@H]1C(=O)N[C@@H](Cc1c[nH]cn1)C(=O)N[C@@H](CCCNC(=N)N)C(=O)N[C@@H](Cc1ccc(O)cc1)C(=O)O [H3K36me1]
Kd (HRP3 PWWP WT): 5100 ± 1900 µM

CC(C)[C@H](NC(=O)CNC(=O)CNC(=O)[C@@H](NC(=O)[C@H](C)NC(=O)[C@@H]1CCCN1C(=O)[C@H](C)N)[C@@H](C)O)C(=O)N[C@@H](CCCCN)C(=O)N[C@@H](CCCCN)C(=O)N1CCC[C@H]1C(=O)N[C@@H](Cc1c[nH]cn1)C(=O)N[C@@H](CCCNC(=N)N)C(=O)N[C@@H](Cc1ccc(O)cc1)C(=O)O [H3K36me0]
Kd (HRP3 PWWP WT): 4700 ± 1200 µM

B1: 16-mer-random (dsDNA)
DNA 1: CAGGCTGGTCTTGAAC
DNA 2: GTTCAAGACCAGCCTG
Kd (HRP3 PWWP (1-110) WT): 3.2 µM

B2: H3K36me2 histone peptide (H3 residues 29–41) (peptide, UniProt P68431 30-42, looked up)
peptide: APATGGVK(Me2)KPHRY
notes: histone H3, residues 29-41; also called H3K36me2-containing peptide
Kd [3]: 2100 µM

B3: 16-mer-GC (dsDNA)
DNA 1: GCGCGCGCGCGCGCGC
DNA 2: GCGCGCGCGCGCGCGC
binding signal [4]: 5.7 fold loss vs WT | Kd (HRP3 PWWP (1-110) WT; self-complementary): 2.8 µM
